Reference: PubChem BioAssay AID2060901 (Molecular Pharmacology Branch, DTP, NCI, 2025)

Tested on: 422866-222-R5-J1-PDC complex spheroids viability
Experiment: Anticancer human tumor 422866-222-R5-J1-PDC patient-derived pancreatic adenocarcinoma cell line growth inhibition [RAS]
Conditions: for IC50: curve of first compound; for viability, T/C: stronger effect = lower value
Outline: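 Tumour cells grown as complex spheroids with HUVEC endothelial cells and mesenchymal stem cells, treated with RAS pathway inhibitor combinations. Each agent spans half-log steps from near clinical Cmax, or 10 microM where Cmax is unknown.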
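Further: spheroids exposed to compounds for 7 days.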
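Wherever viability, T/C is given: 100% = DMSO vehicle control viability.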

`C=CC(=O)Nc1cc(Nc2nccc(-c3cn(C)c4ccccc34)n2)c(OC)cc1N(C)CCN(C)C` + C#Cc1c(F)ccc2cc(O)cc(-c3ncc4c(N5CC6CCC(C5)N6)nc(OCC56CCCN5CC(F)C6)nc4c3F)c12 was tested, and the IC50 (second compound 0.0316 µM) was > 1000 nM, the IC50 (second compound 0.1 µM) was > 1000 nM and the IC50 (second compound 0.316 µM) was 94.2 nM. For the same molecule, the IC50 (second compound 1 µM) was < 3.16 nM, the IC50 (second compound 3.16 µM) was < 3.16 nM and the IC50 (second compound 10 µM) was < 3.16 nM. The viability, T/C (second compound 0.0316 µM, first compound 0.00316 µM) was 83.7%, the viability, T/C (second compound 0.0316 µM, first compound 0.01 µM) was 97.5% and the viability, T/C (second compound 0.0316 µM, first compound 0.0316 µM) was 85.8%. It also gave a viability, T/C (second compound 0.0316 µM, first compound 0.1 µM) of 74%, a viability, T/C (second compound 0.0316 µM, first compound 0.316 µM) of 66% and a viability, T/C (second compound 0.0316 µM, first compound 1 µM) of 57.7%. The viability, T/C (second compound 0.1 µM, first compound 0.00316 µM) was 74.5%, the viability, T/C (second compound 0.1 µM, first compound 0.01 µM) was 91.4% and the viability, T/C (second compound 0.1 µM, first compound 0.0316 µM) was 68.9%. The viability, T/C (second compound 0.1 µM, first compound 0.1 µM) was 58.2%, the viability, T/C (second compound 0.1 µM, first compound 0.316 µM) was 62.6% and the viability, T/C (second compound 0.1 µM, first compound 1 µM) was 50.2%. For the same molecule, the viability, T/C (second compound 0.316 µM, first compound 0.00316 µM) was 72.4%, the viability, T/C (second compound 0.316 µM, first compound 0.01 µM) was 69.8% and the viability, T/C (second compound 0.316 µM, first compound 0.0316 µM) was 47.7%. It also gave a viability, T/C (second compound 0.316 µM, first compound 0.1 µM) of 56.5%, a viability, T/C (second compound 0.316 µM, first compound 0.316 µM) of 42.2% and a viability, T/C (second compound 0.316 µM, first compound 1 µM) of 40.2%. The viability, T/C (second compound 1 µM, first compound 0.00316 µM) was 50.9%, the viability, T/C (second compound 1 µM, first compound 0.01 µM) was 44.5% and the viability, T/C (second compound 1 µM, first compound 0.0316 µM) was 34.1%. It also gave a viability, T/C (second compound 1 µM, first compound 0.1 µM) of 35.9%, a viability, T/C (second compound 1 µM, first compound 0.316 µM) of 33.8% and a viability, T/C (second compound 1 µM, first compound 1 µM) of 31.6%. For the same molecule, the viability, T/C (second compound 3.16 µM, first compound 0.00316 µM) was 33.6%, the viability, T/C (second compound 3.16 µM, first compound 0.01 µM) was 32.9% and the viability, T/C (second compound 3.16 µM, first compound 0.0316 µM) was 27.6%. It also gave a viability, T/C (second compound 3.16 µM, first compound 0.1 µM) of 23.7%, a viability, T/C (second compound 3.16 µM, first compound 0.316 µM) of 26.4% and a viability, T/C (second compound 3.16 µM, first compound 1 µM) of 22.4%. The viability, T/C (second compound 10 µM, first compound 0.00316 µM) was 23.2%, the viability, T/C (second compound 10 µM, first compound 0.01 µM) was 20.7% and the viability, T/C (second compound 10 µM, first compound 0.0316 µM) was 22.2%. For the same molecule, the viability, T/C (second compound 10 µM, first compound 0.1 µM) was 22.1%, the viability, T/C (second compound 10 µM, first compound 0.316 µM) was 19.9% and the viability, T/C (second compound 10 µM, first compound 1 µM) was 19.6%.
`CCc1c2c(nc3ccc(O)cc13)-c1cc3c(c(=O)n1C2)COC(=O)[C@]3(O)CC` was tested, and the viability, T/C (compound 0.000949 µM) was 77.2% [middle of 4 runs], the viability, T/C (compound 0.003 µM) was 51.2% [middle of 4 runs] and the viability, T/C (compound 0.00949 µM) was 51.5% [middle of 4 runs]. For the same molecule, the viability, T/C (compound 0.03 µM) was 53.4% [middle of 4 runs] and the viability, T/C (compound 0.3 µM) was 41.4% [middle of 4 runs].
